Test results taken from patent US11957759B1, “Rapidly accelerated fibrosarcoma (RAF) degrading compounds and associated methods of use” (Arvinas Operations, Inc., priority 2022, dated 2024).

Key:
B-RAF G466V = target: T1, B-RAF G466V (Homo sapiens, UniProt P15056, G466V); test: Target protein degradation, assay D: T-Rex 293 cells, HA-BRAF_G466V, 384 well format; assay type: cell-based; settings: T-Rex 293 HA-BRAF_G466V cells, 24 hours, Examples 83-269; for Dmax: T-REx-293, Assay D
T1 construct: expressed in transfected cells; host or cells: T-Rex 293 cells (Invitrogen #R71007)
T1 sequence (P15056 whole entry G466V): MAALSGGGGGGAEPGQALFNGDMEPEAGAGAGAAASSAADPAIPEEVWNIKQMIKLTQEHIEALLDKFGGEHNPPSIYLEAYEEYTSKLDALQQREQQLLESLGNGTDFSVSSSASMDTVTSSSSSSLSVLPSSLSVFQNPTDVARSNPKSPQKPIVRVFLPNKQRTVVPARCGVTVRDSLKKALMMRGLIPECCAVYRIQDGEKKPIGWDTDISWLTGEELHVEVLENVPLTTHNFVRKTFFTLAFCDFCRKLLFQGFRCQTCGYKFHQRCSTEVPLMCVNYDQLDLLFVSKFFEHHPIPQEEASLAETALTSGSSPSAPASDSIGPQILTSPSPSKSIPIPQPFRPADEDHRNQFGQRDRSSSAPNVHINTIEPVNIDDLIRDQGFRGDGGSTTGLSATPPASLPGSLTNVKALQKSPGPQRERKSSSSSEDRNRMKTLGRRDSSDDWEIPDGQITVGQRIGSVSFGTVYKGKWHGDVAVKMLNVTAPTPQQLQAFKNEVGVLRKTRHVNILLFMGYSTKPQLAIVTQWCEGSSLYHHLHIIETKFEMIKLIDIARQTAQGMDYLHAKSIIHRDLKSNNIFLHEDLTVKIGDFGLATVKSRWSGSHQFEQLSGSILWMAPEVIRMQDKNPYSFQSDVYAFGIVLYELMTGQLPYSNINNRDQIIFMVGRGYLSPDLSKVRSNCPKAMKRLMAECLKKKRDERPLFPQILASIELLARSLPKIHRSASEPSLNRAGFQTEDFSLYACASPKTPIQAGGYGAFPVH
Procedure, shortened: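 T-Rex 293 cells stably expressing doxycycline-induced (1 ng/mL) HA-BRAF G466V treated 24 h at 37 °C with PROTACs, 11-point 1:3 dilution, 300 nM to 5 pM final, 0.5% DMSO. Fixed cells immunostained for HA and imaged by high-content microscopy; DC50 and Dmax (% of control) derived, toxicity from nuclei counts versus DMSO.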

B-RAF V600E = target: T2, B-RAF V600E (Homo sapiens, UniProt P15056, V600E); test: Target protein degradation, assay C: T-Rex 293 cells, HA-BRAF_V600E, 384 well format; assay type: cell-based; settings: T-Rex 293 HA-BRAF_V600E cells, 24 hours, Examples 83-269; for DC50: Assay C; for Dmax: T-REx-293, Assay C
T2 construct: expressed in transfected cells; host or cells: T-Rex 293 cells (Invitrogen #R71007)
T2 sequence (P15056 whole entry V600E): as the sequence (P15056 whole entry G466V) above, with V466G, V600E counted along it
Procedure, shortened: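 T-Rex 293 cells stably expressing doxycycline-induced (1 ng/mL) HA-BRAF V600E were treated 24 h at 37 °C with compound (300 nM–5 pM, 11 points, 0.5% DMSO). HA immunofluorescence was quantified by high-content imaging to give DC50 and Dmax (% of control); nuclei counts versus DMSO gauged toxicity.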

Row | SMILES | DC50 (B-RAF G466V; Assay D) [nM] | Dmax (B-RAF G466V) [%] | DC50 (B-RAF V600E) [nM] | Dmax (B-RAF V600E) [%] | B-RAF G466V DMax (%) (B-RAF G466V; Assay D)
1 | C[C@H]1CN(CC2CCN(c3ccc4c(c3F)CN([C@H]3CCC(=O)NC3=O)C4=O)CC2)CCN1c1ccc(-n2cnc3ccc(Oc4c(F)ccc(NS(=O)(=O)N5CC[C@@H](F)C5)c4C#N)cc3c2=O)nc1 [Example 213, (3R)-N-{2-cyano-3-[(3-{5-[(2S)-4-[(1-{2-[(3S)-2,6-dioxopiperidin-3-yl]-4-fluoro-1-oxo-2,3-dihydro-1H-isoindol-5-yl}piperidin-4-yl)methyl]-2-methylpiperazin-1-yl]pyridin-2-yl}-4-oxo-3,4-dihydroquinazolin-6-yl)oxy]-4-fluorophenyl}-3-fluoropyrrolidine-1-sulfonamide] | 1 to 10 | ≤ 35 | 50 to 500 | ≤ 35 | –
2 | N#Cc1c(NS(=O)(=O)N2CC[C@@H](F)C2)ccc(F)c1Oc1ccc2ncn(-c3ccc(N4CCN(C(=O)C5CCN(c6ccc7c(c6)CN(C6CCC(=O)NC6=O)C7=O)CC5)CC4)cc3)c(=O)c2c1 (single isomer, unassigned) [Example 242, (3R)-N-{2-cyano-3-[(3-(4-[4-(1-{2-[(3R*)-2,6-dioxopiperidin-3-yl]-1-oxo-2,3-dihydro-1H-isoindol-5-yl}piperidine-4-carbonyl)piperazin-1-yl]phenyl}-4-oxo-3,4-dihydroquinazolin-6-yl)oxy]-4-fluorophenyl}-3-fluoropyrrolidine-1-sulfonamide] | 10 to 30 | – | > 500 | – | C (C ≤ 35)
3 | N#Cc1c(NS(=O)(=O)N2CC[C@@H](F)C2)ccc(F)c1Oc1ccc2ncn(-c3cnc(N4CCC(CC5CCCN5c5ccc6c(c5)C(=O)N(C5CCC(=O)NC5=O)C6=O)CC4)nc3)c(=O)c2c1 (stereo partly drawn) [Example 156, (3R)-N-{2-cyano-3-[(3-{2-[4-({1-[2-(2,6-dioxopiperidin-3-yl)-1,3-dioxo-2,3-dihydro-1H-isoindol-5-yl]pyrrolidin-2-yl}methyl)piperidin-1-yl]pyrimidin-5-yl}-4-oxo-3,4-dihydroquinazolin-6-yl)oxy]-4-fluorophenyl}-3-fluoropyrrolidine-1-sulfonamide] | > 30 | – | 50 to 500 | 35 to 70 | –
4 | N#Cc1c(NS(=O)(=O)N2CC[C@@H](F)C2)ccc(F)c1Oc1ccc2ncn(-c3cccc(C4CCN(CC5CN(c6ccc7c(c6)CN([C@H]6CCC(=O)NC6=O)C7=O)C5)CC4)c3)c(=O)c2c1 [Example 255, (3R)-N-(2-cyano-3-{[3-(3-{1-[(1-{2-[(3S)-2,6-dioxopiperidin-3-yl]-1-oxo-2,3-dihydro-1H-isoindol-5-yl}azetidin-3-yl)methyl]piperidin-4-yl}phenyl)-4-oxo-3,4-dihydroquinazolin-6-yl]oxy}-4-fluorophenyl)-3-fluoropyrrolidine-1-sulfonamide] | 1 to 10 | ≥ 70 | 50 to 500 | 35 to 70 | –
5 | N#Cc1c(NS(=O)(=O)N2CC[C@@H](F)C2)ccc(F)c1Oc1ccc2ncn(-c3ccc(N4CC5(CCN(CC6CCN(c7ccc8c(c7)CN([C@H]7CCC(=O)NC7=O)C8=O)CC6)CC5)C4)cc3)c(=O)c2c1 [Example 192, (3R)-N-(2-cyano-3-{[3-(4-{7-[(1-{2-[(3S)-2,6-dioxopiperidin-3-yl]-1-oxo-2,3-dihydro-1H-isoindol-5-yl}piperidin-4-yl)methyl]-2,7-diazaspiro[3.5]nonan-2-yl}phenyl)-4-oxo-3,4-dihydroquinazolin-6-yl]oxy}-4-fluorophenyl)-3-fluoropyrrolidine-1-sulfonamide] | 1 to 10 | 35 to 70 | 50 to 500 | 35 to 70 | –
6 | N#Cc1c(NS(=O)(=O)N2CC[C@@H](F)C2)ccc(F)c1Oc1ccc2ncn(-c3ccc(N4CC(CN5CCN(C6CCN(c7ccc8c(c7)CN(C7CCC(=O)NC7=O)C8=O)CC6)CC5)C4)cc3)c(=O)c2c1 (single isomer, unassigned) [Example 197, (3R)-N-[2-cyano-3-({3-[4-(3-{[4-(1-{2-[(3R*)-2,6-dioxopiperidin-3-yl]-1-oxo-2,3-dihydro-1H-isoindol-5-yl}piperidin-4-yl)piperazin-1-yl]methyl}azetidin-1-yl)phenyl]-4-oxo-3,4-dihydroquinazolin-6-yl}oxy)-4-fluorophenyl]-3-fluoropyrrolidine-1-sulfonamide] | 1 to 10 | 35 to 70 | 50 to 500 | ≤ 35 | –
7 | N#Cc1c(NS(=O)(=O)N2CC[C@@H](F)C2)ccc(F)c1Oc1ccc2ncn(-c3ccc(N4CCN(CC5CCN(c6ccc7c(c6)CN(C6CCC(=O)NC6=O)C7=O)CC5)CC4)nn3)c(=O)c2c1 (stereo partly drawn) [Example 92, (3R)-N-{2-cyano-3-[(3-{6-[4-({1-[2-(2,6-dioxopiperidin-3-yl)-1-oxo-2,3-dihydro-1H-isoindol-5-yl]piperidin-4-yl}methyl)piperazin-1-yl]pyridazin-3-yl}-4-oxo-3,4-dihydroquinazolin-6-yl)oxy]-4-fluorophenyl}-3-fluoropyrrolidine-1-sulfonamide] | 10 to 30 | ≤ 35 | 50 to 500 | ≤ 35 | –
8 | Cn1c(=O)n(C2CCC(=O)NC2=O)c2cccc(N3CC(CN4CCN(c5ccc(-n6cnc7ccc(Oc8c(F)ccc(NS(=O)(=O)N9CC[C@@H](F)C9)c8C#N)cc7c6=O)cc5)CC4)C3)c21 (stereo partly drawn) [Example 218, (3R)-N-{2-cyano-3-[(3-{4-[4-({1-[1-(2,6-dioxopiperidin-3-yl)-3-methyl-2-oxo-2,3-dihydro-1H-1,3-benzodiazol-4-yl]azetidin-3-yl}methyl)piperazin-1-yl]phenyl}-4-oxo-3,4-dihydroquinazolin-6-yl)oxy]-4-fluorophenyl}-3-fluoropyrrolidine-1-sulfonamide] | 1 to 10 | 35 to 70 | 50 to 500 | 35 to 70 | –
9 | N#Cc1c(NS(=O)(=O)N2CC[C@@H](F)C2)ccc(F)c1Oc1ccc2ncn(-c3ccc(N4CCC(CN5CC6(CCC(c7ccc8c(c7)CN(C7CCC(=O)NC7=O)C8=O)CC6)C5)C4)cc3)c(=O)c2c1 (single isomer, unassigned) [Example 260, (3R)-N-(2-cyano-3-{[3-(4-{3-[(7-{2-[(3R*)-2,6-dioxopiperidin-3-yl]-1-oxo-2,3-dihydro-1H-isoindol-5-yl}-2-azaspiro[3.5]nonan-2-yl)methyl]pyrrolidin-1-yl}phenyl)-4-oxo-3,4-dihydroquinazolin-6-yl]oxy}-4-fluorophenyl)-3-fluoropyrrolidine-1-sulfonamide] | 1 to 10 | ≥ 70 | 50 to 500 | 35 to 70 | –
10 | N#Cc1c(NS(=O)(=O)N2CCC(F)C2)ccc(F)c1Oc1ccc2ncn(-c3ccc(N4CCN(CC5CN(c6ccc7c(c6)CN(C6CCC(=O)NC6=O)C7=O)C5)CC4)cc3)c(=O)c2c1 (centres unmarked) [Example 194, N-{2-cyano-3-[(3-{4-[4-({1-[2-(2,6-dioxopiperidin-3-yl)-1-oxo-2,3-dihydro-1H-isoindol-5-yl]azetidin-3-yl}methyl)piperazin-1-yl]phenyl}-4-oxo-3,4-dihydroquinazolin-6-yl)oxy]-4-fluorophenyl}-3-fluoropyrrolidine-1-sulfonamide] | 1 to 10 | 35 to 70 | 50 to 500 | ≤ 35 | –
